Experimental data taken from patent publication EP0365818A1, “Immunological detection of atrazine and atrazine derivatives” (CIBA-GEIGY AG, priority 1988, dated 1990).

Columns and labels:
Type in all cases: binding, Maus
[1] = test system: MAb 4009-85-3 (ECACC 8808/2503); experiment: two-step competitive ELISA (BSA-conjugated hapten on plate), anti-hydroxyatrazine MAb; settings: for % cross-reactivity (c): (Hydroxyatrazin conc. for 50 % inhibition)/(analogue conc. for 50 % inhibition) x 100; for I 50 ng/ml (a): inhibitor concentration for 50 % inhibition in competitive ELISA
From the text: (§1) Der prozentuale Anteil der Kreuzreaktivität soll im Rahmen dieser Erfindung definitionsgemäss durch die folgende Beziehung wiedergegeben werden: (Atrazin/Hydroxyatrazinkonzentration für 50 % Hemmung/Konzentration der s-Triazin-/Hydroxytriazinanalogen für 50 % Hemmung) x 100.
(§2) Eine 50 %ige Hemmung kann beispielsweise mit Hilfe eines kompetitiven ELISA Assays (vgl. Beispiel 8) bestimmt werden. Diese entspricht dann beispielsweise derjenigen Antigenkonzentration, die zu einer 50 %igen Hemmung der Antikörperbindung an das Träger-gebundene Antigen führt.
(§3) Der Nachweis von Atrazin und Hydroxyatrazin erfolgt mit Hilfe eines zweistufigen, kompetitiven ELISA-Tests.
(§4) BSA-konjugiertes Hapten wird zunächst in einem Natriumcarbonatpuffer (pH 9,6) (0,2 µg/Vertiefung) an Mikrotiterplatten adsorbiert und über Nacht bei einer Temperatur von 4°C inkubiert. Die restlichen freien Bindungsstellen des festen Trägermaterials werden dann durch Zugabe von BSA in Form einer 1 % Lösung blockiert.
(§5) Die Platten werden anschliessend mit PBS gewaschen, das mit 0,1 % (v/v) Polysorbat 20 angereichert ist (PBS-Tween).
(§6) 50 µl der zuvor gereinigten monoklonalen Antikörper (2 µg/ml) oder aber des Ueberstandes der Zellklone (in einer Verdünnung von 1:5 bis 1:22,5) werden a) mit 950 µl einer Standardlösung, die einen steigenden Anteil an Triazin bzw. Triazin-Analogen enthält, b) mit triazinhaltigen Wasserproben oder c) triazinhaltigen Bodenextrakten inkubiert. (Alle Verdünnungen werden in PBS-Tween vorgenommen).
(§7) Nach einer Inkubationszeit von 1 Stunde bei Raumtemperatur werden 200 µl des Gemisches zu jeder Vertiefung der Mikrotiterplatte zugegeben und der gesamte Ansatz wird für eine weitere Stunde inkubiert.
(§8) Die Vertiefungen werden anschliessend 5 x gewaschen und mit 100 µl/Vertiefung Ziegen-anti-Maus IgG Antikörper der konjugiert an alkalische Phosphatase vorliegt (Verdünnung 1:1500) beschickt und für einen Zeitraum von 1,5 Stunden inkubiert.
(§9) Nach erneutem Waschen werden 150 µl/Vertiefung des in 1 mg/ml Diethanolaminpuffer (1 mM, pH 9,8) gelösten Substrates p-Nitrophenylphosphat zu den Vertiefungen zugegeben.
(§10) Ein Farbumschlag, der proportional ist zur Menge an Antikörper, der mit dem an die Festphase gebundenen Antigen reagiert hat, wird bei einer Wellenlänge von 405 nm aufgezeichnet. Die Verdünnungen der einzelnen Proben werden so gewählt, dass man ohne Zugabe eines Inhibitors (Bo) Absorptionswerte in einem Bereich zwischen 0.3 und 0.5 erhält. Für die Kontrollen (ohne Antikörper und mit nicht nachweisbaren Mengen an Antigen) ergeben sich Werte von R ≦ 0.005. Alle Proben werden in dreifacher Ausfertigung bestimmt.
(§11) Zur Ermittlung der in einer Probe enthaltenen Menge an Atrazin/Hydroxyatrazin wird zunächst eine Eichkurve erstellt (Abb. 1), wobei B/Bo x 100 gegen die Konzentration an Inhibitor aufgetragen wird. (Bo bedeutet Absorptionsfähigkeit gemessen ohne Zugabe eines Triazininhibitors zum Antikörper, und B Absorptionsfähigkeit bei Zugabe verschieden konzentrierter Triazin-Inhibitoren) Der I₅₀-Wert gibt diejenige Konzentration des Antigens an, bei der die Antikörperbindung an die Festphase zu 50 % gehemmt wird. Der I₅₀-Wert wird mit Hilfe eines auf die vorliegenden Verhältnisse speziell angepassten ENZFITTER (Leatherbarrow, Elsevier-Biosoft)Kurvenkalkulationsprogramms bestimmt, basierend auf einer 4 Parameter umfassenden logistischen Kurve (Raab GM, 1983). Auch die quantitative Atrazin bzw. Hydroxyatrazinbestimmung in Boden- oder Wasserproben im Rahmen des ELISA wird mit Hilfe des ENZFITTER-Programms durchgeführt, wobei die Anpassung der Kurve auf Standards basiert, die auf jeder Mikrotiterplatte mitlaufen.

[2] = test system: Mab 4009-77-20 (ECACC 8808/2502); experiment: as above; settings: for % cross-reactivity (c): (Hydroxyatrazin conc. for 50 % inhibition)/(analogue conc. for 50 % inhibition) x 100; for I 50 ng/ml (a): inhibitor concentration for 50 % inhibition in competitive ELISA
From the text: as §1, §2, §3, §4, §5, §6, §7, §8, §9, §10, §11

[3] = test system: MAb 4063-21-1 (ECACC 8808/2501); experiment: two-step competitive ELISA (BSA-conjugated hapten on plate), anti-atrazine MAb; settings: for % cross-reactivity (b): (Atrazin conc. for 50 % inhibition)/(analogue conc. for 50 % inhibition) x 100; for I 50 ng/ml (a): inhibitor concentration for 50 % inhibition in competitive ELISA
From the text: as §1, §2, §3, §4, §5, §6, §7, §8, §9, §10, §11

SMILES | % cross-reactivity (c) [1] | I 50 ng/ml (a) [1] | % cross-reactivity (c) [2] | I 50 ng/ml (a) [2] | % cross-reactivity (b) [3] | I 50 ng/ml (a) [3] | I 50 ng/ml (a) ([1]; listed as Hydroxyatrazin) [ng/mL] | I 50 ng/ml (a) ([2]; listed as Hydroxyatrazin) [ng/mL]
CCNc1nc(NC(C)C)nc(SC)n1 [Ametryn] | <0,1% | >1000 ng/mL | <0,05% | >1000 ng/mL | 5,0% | 9 ng/mL |  | 
CCNc1nc(NC(C)C)nc(OC)n1 [Atraton] | <0,1% | >1000 ng/mL | <0,05% | >1000 ng/mL | 6,4% | 7 ng/mL |  | 
CCNc1nc(Cl)nc(NC(C)C)n1 [Atrazin] | <0,1% | >1000 ng/mL | <0,05% | >1000 ng/mL | 100,0% |  |  | 
CNc1nc(NC(C)C)nc(SC)n1 [Desmetryn] |  |  |  |  | 0,5% | 90 ng/mL |  | 
CCNc1nc(O)nc(NC(C)C)n1 [OH-Atrazin, Hydroxyatrazin] | 100,0% | 0,95 ng/ml | 100,0% | 0,5 ng/ml | 2,1% | 21 ng/mL | 0.95 | 0.5
CNc1nc(O)nc(NC(C)C)n1 [OH-Desmetryn, Hydroxydesmetryn] | 11,9% | 8 ng/mL | 71,4% | 0,7 ng/ml | 0,1% | 360 ng/mL |  | 
CC(C)Nc1nc(O)nc(NC(C)C)n1 [OH-Propazin, Hydroxypropazin] | 100,0% | 0,95 ng/ml | 83,3% | 0,6 ng/ml | 8,2% | 5,5 ng/ml |  | 
CCNc1nc(O)nc(NCC)n1 [OH-Simazin, Hydroxysimazin] | 1,5% | 65 ng/mL | 41,7% | 1,2 ng/ml | 0,3% | 180 ng/mL |  | 
CCNc1nc(O)nc(NC(C)(C)C)n1 [OH-Terbuthylazin, Hydroxyterbuthylazin] | 5,0% | 19 ng/mL | 15,2% | 3,3 ng/ml | 5,6% | 8 ng/mL |  | 
COc1nc(NC(C)C)nc(NC(C)C)n1 [Prometon] |  |  |  |  | 75,0% | 0,6 ng/ml |  | 
CSc1nc(NC(C)C)nc(NC(C)C)n1 [Prometryn] |  |  |  |  | 56,3% | 0,8 ng/ml |  | 
CC(C)Nc1nc(Cl)nc(NC(C)C)n1 [Propazin] | <0,1% | >1000 ng/mL | <0,05% | >1000 ng/mL | 90,0% | 0,5 ng/ml |  | 
CCNc1nc(Cl)nc(NCC)n1 [Simazin] |  |  |  |  | 2,5% | 18 ng/mL |  | 
CCNc1nc(NCC)nc(SC)n1 [Simetryn] |  |  |  |  | 1,7% | 27 ng/mL |  | 
CCNc1nc(Cl)nc(NC(C)(C)C)n1 [Terbuthylazin] |  |  |  |  | 5,0% | 9 ng/mL |  | 
CCNc1nc(Cl)nc(N(CC)CC)n1 [Trietazin] |  |  |  |  | 11,3% | 4 ng/mL |  | 
